Source: patent publication US11826351B2, “Compounds useful as kinase inhibitors” (Loxo Oncology, Inc., priority 2015, dated 2023)
pIC50: −log10 of the molar value.

Experiments:
[1] = target: T1, Recombinant BTK^C481S kinase (Homo sapiens, UniProt Q06187, C481S); experiment: BTK C481S binding affinity (LanthaScreen TR-FRET); details: Kinase Tracer 236, 5 h incubation
T1 construct: purchased SignalChem
Outline: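 BTK C481S tracer-displacement TR-FRET: 5 nM His-tagged kinase, 2 nM Eu anti-His antibody and 30 nM Kinase Tracer 236 incubated with titrated inhibitor for 5 h in Kinase Buffer A. Read at 340 nm excitation, 615/665 nm emission; IC50 from variable-slope log[inhibitor]–response fit.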

[2] = target: T2, Recombinant BTK^WT kinase (Homo sapiens, UniProt Q06187); experiment: BTK WT binding affinity (LanthaScreen TR-FRET); details: Kinase Tracer 236, 5 h incubation
T2 construct: purchased Invitrogen
Outline: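 IC50 obtained by variable-slope fit of TR-FRET signal (ex 340 nm; em 615 and 665 nm) versus inhibitor concentration. Reaction held for 5 h in LanthaScreen Kinase Buffer A with 2.5 nM His-tagged BTK^WT, 15 nM Kinase Tracer 236 and 2 nM Eu anti-His antibody.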

[3] = tested on: OCI-Ly10 human DLBCL cells; experiment: OCI-Ly10 anti-proliferative activity (Resazurin); format: cell-based; details: Homo sapiens, OCI-Ly10, 72 h, OCI-Ly10 cells, 72 h compound treatment, Resazurin; read-out: Proliferation Assay OCI-Ly10-20% FBS
Outline: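 A separate untreated plate gave the Day 0 reading, measured by Resazurin fluorescence at 590 nm after 5 h. The average Day 0 value was subtracted from each treated well, and results were expressed as percent of DMSO control. IC50 values came from a log[Inhibitor] vs response Variable Slope fit in Graphpad prism.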

[4] = target: T3, Recombinant EGFR (Homo sapiens, UniProt P00533); experiment: EGFR binding affinity (LanthaScreen TR-FRET); details: Kinase Tracer 199, 5 h incubation
T3 construct: purchased Invitrogen
Outline: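 Compounds were titrated against recombinant EGFR and binding was followed by LanthaScreen time-resolved FRET.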

T1 sequence (Q06187 whole entry C481S): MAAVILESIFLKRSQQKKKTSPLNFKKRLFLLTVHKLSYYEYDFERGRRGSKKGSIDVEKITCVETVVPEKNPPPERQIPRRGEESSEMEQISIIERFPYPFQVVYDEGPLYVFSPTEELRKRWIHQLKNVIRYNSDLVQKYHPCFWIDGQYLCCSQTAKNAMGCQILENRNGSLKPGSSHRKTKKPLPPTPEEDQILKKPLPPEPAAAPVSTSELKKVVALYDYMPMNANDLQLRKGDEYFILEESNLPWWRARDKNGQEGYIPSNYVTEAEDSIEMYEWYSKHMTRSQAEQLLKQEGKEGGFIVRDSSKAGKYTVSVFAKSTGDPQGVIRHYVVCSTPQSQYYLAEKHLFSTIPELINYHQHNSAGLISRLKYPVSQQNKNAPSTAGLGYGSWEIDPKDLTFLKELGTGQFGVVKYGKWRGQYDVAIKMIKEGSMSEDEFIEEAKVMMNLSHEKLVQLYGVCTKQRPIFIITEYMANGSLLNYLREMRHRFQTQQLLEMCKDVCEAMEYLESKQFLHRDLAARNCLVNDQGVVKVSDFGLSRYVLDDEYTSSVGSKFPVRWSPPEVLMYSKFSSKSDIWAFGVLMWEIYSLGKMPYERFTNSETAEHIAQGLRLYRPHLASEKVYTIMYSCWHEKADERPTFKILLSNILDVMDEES
T3 sequence (P00533 25-1210): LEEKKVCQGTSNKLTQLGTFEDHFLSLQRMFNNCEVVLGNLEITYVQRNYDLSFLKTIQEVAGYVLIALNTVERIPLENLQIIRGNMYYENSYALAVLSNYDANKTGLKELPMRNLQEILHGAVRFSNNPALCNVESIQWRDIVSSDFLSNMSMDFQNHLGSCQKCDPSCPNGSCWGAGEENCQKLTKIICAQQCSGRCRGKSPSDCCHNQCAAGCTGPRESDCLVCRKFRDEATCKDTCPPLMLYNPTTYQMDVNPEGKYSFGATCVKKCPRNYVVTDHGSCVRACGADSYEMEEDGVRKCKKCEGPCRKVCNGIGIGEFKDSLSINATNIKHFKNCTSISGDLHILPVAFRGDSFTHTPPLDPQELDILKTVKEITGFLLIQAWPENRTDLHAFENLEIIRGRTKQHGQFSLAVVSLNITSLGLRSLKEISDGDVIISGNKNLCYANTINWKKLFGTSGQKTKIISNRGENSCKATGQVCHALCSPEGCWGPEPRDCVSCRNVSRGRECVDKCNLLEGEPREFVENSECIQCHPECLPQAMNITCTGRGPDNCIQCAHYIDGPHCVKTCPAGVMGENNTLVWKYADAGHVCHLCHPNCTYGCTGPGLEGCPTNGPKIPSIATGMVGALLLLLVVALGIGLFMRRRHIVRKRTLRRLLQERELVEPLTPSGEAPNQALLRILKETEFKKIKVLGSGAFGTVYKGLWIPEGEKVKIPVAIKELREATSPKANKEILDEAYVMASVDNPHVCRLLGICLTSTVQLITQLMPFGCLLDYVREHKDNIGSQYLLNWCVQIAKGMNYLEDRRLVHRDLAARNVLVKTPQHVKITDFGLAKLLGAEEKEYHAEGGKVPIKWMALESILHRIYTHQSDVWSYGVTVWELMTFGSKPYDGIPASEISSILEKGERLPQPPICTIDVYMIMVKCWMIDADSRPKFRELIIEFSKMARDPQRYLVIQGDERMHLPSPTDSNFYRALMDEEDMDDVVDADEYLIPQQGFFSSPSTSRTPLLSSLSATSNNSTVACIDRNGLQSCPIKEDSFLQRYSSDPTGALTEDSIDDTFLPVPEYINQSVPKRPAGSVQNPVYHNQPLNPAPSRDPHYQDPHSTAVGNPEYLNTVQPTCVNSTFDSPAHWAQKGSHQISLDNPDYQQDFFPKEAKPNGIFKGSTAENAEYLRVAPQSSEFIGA
T2 sequence (Q06187 whole entry): as the sequence (Q06187 whole entry C481S) above, with S481C counted along it

SMILES | pIC50 [1] | pIC50 [2] | pIC50 [3] | pIC50 [4]
COc1ccc(F)cc1C(=O)NCc1ccc(-c2nn(C3CCOC3)c(N)c2C(N)=O)cc1 (stereo not drawn) [Example 114, 5-amino-3-[4-[[(5-fluoro-2-methoxy-benzoyl)amino]methyl]phenyl]-1-tetrahydrofuran-3-yl-pyrazole-4-carboxamide] | > 8.00 | > 8.00 | 7.00 to 8.00 | 5.00 to 6.00
COc1ccccc1C(=O)NCc1cc(F)c(-c2nn(C3CCOC3)c(N)c2C(N)=O)cc1F (stereo not drawn) [Example 152, 5-amino-3-[2,5-difluoro-4-[[(2-methoxybenzoyl)amino]methyl]phenyl]-1-tetrahydrofuran-3-yl-pyrazole-4-carboxamide] | 7.00 to 8.00 | 7.00 to 8.00 | 6.00 to 7.00 | < 5.00
COc1ccccc1C(=O)NCc1ccc(-c2nn([C@@H]3COC[C@H]3O)c(N)c2C(N)=O)cc1 (relative stereo) [Example 94, 5-amino-1-[trans-4-hydroxytetrahydrofuran-3-yl]-3-[4-[[(2-methoxybenzoyl)amino]methyl]phenyl]pyrazole-4-carboxamide] | > 8.00 | 7.00 to 8.00 | 5.00 to 6.00 | 5.00 to 6.00
COc1ccccc1C(=O)NCc1ccc(-c2nn(C3CCCC(=O)C3)c(N)c2C(N)=O)cc1 (stereo not drawn) [Example 12, 5-amino-3-[4-[[(2-methoxybenzoyl)amino]methyl]phenyl]-1-(3-oxocyclohexyl)pyrazole-4-carboxamide] | 6.00 to 7.00 | 6.00 to 7.00 | 5.00 to 6.00 | < 5.00
CCNc1c(C(N)=O)c(-c2ccc(CNC(=O)c3ccccc3OC)cc2)nn1C1CCCC1 [Example 73, 1-cyclopentyl-5-(ethylamino)-3-[4-[[(2-methoxybenzoyl)amino]methyl]phenyl]pyrazole-4-carboxamide] | > 8.00 | > 8.00 | 7.00 to 8.00 | 6.00 to 7.00
COc1ccccc1C(=O)NCc1ccc(-c2nn(C)c(N)c2C(N)=O)cc1 [Example 30, 5-Amino-3-[4-[[(2-methoxybenzoyl)amino]methyl]phenyl]-1-methyl-pyrazole-4-carboxamide] | 7.00 to 8.00 | 7.00 to 8.00 | 6.00 to 7.00 | < 5.00
CCOC(=O)C1CCC(n2nc(-c3ccc(CNC(=O)c4ccccc4OC)cc3)c(C(N)=O)c2N)CC1 (stereo not drawn) [Example 40, Ethyl 4-[5-amino-4-carbamoyl-3-[4-[[(2-methoxybenzoyl)amino]methyl]phenyl]pyrazol-1-yl]cyclohexanecarboxylate] | > 8.00 | > 8.00 | 7.00 to 8.00 | 6.00 to 7.00
COc1ccccc1C(=O)NCc1ccc(-c2nn(CCc3nnn[nH]3)c(N)c2C(N)=O)cc1 [Example 25, 5-Amino-3-[4-[[(2-methoxybenzoyl)amino]methyl]phenyl]-1-[2-(1H-tetrazol-5-yl)ethyl]pyrazole-4-carboxamide] | > 8.00 | 7.00 to 8.00 | < 5.00 | 5.00 to 6.00
COc1ccccc1C(=O)NCc1ccc(-c2nn(-c3cccc(F)c3F)c(N)c2C(N)=O)cc1 [Example 81, 5-amino-1-(2,3-difluorophenyl)-3-[4-[[(2-methoxybenzoyl)amino]methyl]phenyl]pyrazole-4-carboxamide] | > 8.00 | > 8.00 | 7.00 to 8.00 | 6.00 to 7.00
COc1ccc(F)cc1C(=O)NCc1ccc(-c2nn(C3CCOCC3)c(N)c2C(N)=O)c(F)c1F [Example 142, 5-amino-3-[2,3-difluoro-4-[[(5-fluoro-2-methoxy-benzoyl)amino]methyl]phenyl]-1-tetrahydropyran-4-yl-pyrazole-4-carboxamide] | > 8.00 | > 8.00 | 6.00 to 7.00 | 5.00 to 6.00
COc1ccccc1C(=O)NCc1ccc(-c2nn([C@H]3CC[C@H](F)C3)c(N)c2C(N)=O)cc1 (relative stereo) [Example 41, 5-amino-1-[(1S*,3S*)-3-fluorocyclopentyl]-3-[4-[[(2-methoxybenzoyl)amino]methyl]phenyl]pyrazole-4-carboxamide] | > 8.00 | > 8.00 | 7.00 to 8.00 | 6.00 to 7.00
COc1ccc(F)cc1C(=O)NCc1ccc(-c2nn(C(c3ccccc3)C(F)(F)F)c(N)c2C(N)=O)cc1 (stereo not drawn) [Example 178, 5-Amino-3-[4-[[(5-fluoro-2-methoxy-benzoyl)amino]methyl]phenyl]-1-(2,2,2-trifluoro-1-phenyl-ethyl)pyrazole-4-carboxamide] | > 8.00 | 7.00 to 8.00 | 7.00 to 8.00 | 5.00 to 6.00
COc1ccccc1C(=O)NCc1ccc(-c2nn(CCN3CCOCC3)c(N)c2C(N)=O)cc1 [Example 9, 5-Amino-3-[4-[[(2-methoxybenzoyl)amino]methyl]phenyl]-1-(2-morpholinoethyl)pyrazole-4-carboxamide] | 7.00 to 8.00 | 7.00 to 8.00 | 6.00 to 7.00 | 5.00 to 6.00
COc1ccccc1C(=O)NCc1ccc(-c2nn(C3CCC(C)(O)CC3)c(N)c2C(N)=O)cc1 (single isomer, unassigned) [Example 33, 5-Amino-1-(4-hydroxy-4-methyl-cyclohexyl)-3-[4-[[(2-methoxybenzoyl)amino]methyl]phenyl]pyrazole-4-carboxamide] | > 8.00 | > 8.00 | 7.00 to 8.00 | 6.00 to 7.00
COc1ccccc1C(=O)NCc1ccc(-c2nn(C3CCC(C)(C)CC3)c(N)c2C(N)=O)cc1 [Example 26, 5-Amino-1-(4,4-dimethylcyclohexyl)-3-[4-[[(2-methoxybenzoyl)amino]methyl]phenyl]pyrazole-4-carboxamide] | > 8.00 | > 8.00 | > 8.00 | 7.00 to 8.00

Next, values leading:

pIC50 [1] | pIC50 [2] | pIC50 [3] | pIC50 [4] | SMILES
> 8.00 | > 8.00 | 7.00 to 8.00 | 5.00 to 6.00 | COc1ccccc1C(=O)NCc1ccc(-c2nn(C3CCC(O)CC3)c(N)c2C(N)=O)cc1 (single isomer, unassigned) [Example 34b, 5-Amino-1-(4-hydroxycyclohexyl)-3-[4-[[(2-methoxybenzoyl)amino]methyl]phenyl]pyrazole-4-carboxamide]
> 8.00 | > 8.00 | 7.00 to 8.00 | 5.00 to 6.00 | COc1ccc(F)cc1C(=O)NCc1ccc(-c2nn(C(C)C(F)F)c(N)c2C(N)=O)cc1 (stereo not drawn) [Example 173, 5-amino-1-(2,2-difluoro-1-methyl-ethyl)-3-[4-[[(5-fluoro-2-methoxy-benzoyl)amino]methyl]phenyl]pyrazole-4-carboxamide]
> 8.00 | > 8.00 | 7.00 to 8.00 | 6.00 to 7.00 | COc1ccccc1C(=O)NCc1ccc(-c2nn(-c3cccc(C)c3)c(N)c2C(N)=O)cc1 [Example 50, 5-amino-3-[4-[[(2-methoxybenzoyl)amino]methyl]phenyl]-1-(m-tolyl)pyrazole-4-carboxamide]
> 8.00 | > 8.00 | 7.00 to 8.00 | 5.00 to 6.00 | CCN1CC(n2nc(-c3ccc(CNC(=O)c4cc(F)ccc4OC)cc3)c(C(N)=O)c2N)C(F)(F)C1 (stereo not drawn) [Example 198, 5-Amino-1-(1-ethyl-4,4-difluoro-pyrrolidin-3-yl)-3-[4-[[(5-fluoro-2-methoxy-benzoyl)amino]methyl]phenyl]pyrazole-4-carboxamide]
> 8.00 | 7.00 to 8.00 | 6.00 to 7.00 | < 5.00 | COc1ccccc1C(=O)NCc1ccc(-c2nn(-c3ccc(C(F)(F)F)cn3)c(N)c2C(N)=O)cc1 [Example 6, 5-Amino-3-[4-[[(2-methoxybenzoyl)amino]methyl]phenyl]-1-[5-(trifluoromethyl)-2-pyridyl]pyrazole-4-carboxamide]
> 8.00 | > 8.00 | 7.00 to 8.00 | 5.00 to 6.00 | COc1ccc(F)cc1C(=O)NCc1ccc(-c2nn(C3CNCC3(F)F)c(N)c2C(N)=O)cc1 (stereo not drawn) [Example 169, 5-amino-1-(4,4-difluoropyrrolidin-3-yl)-3-[4-[[(5-fluoro-2-methoxy-benzoyl)amino]methyl]phenyl]pyrazole-4-carboxamide]
> 8.00 | > 8.00 | > 8.00 | 6.00 to 7.00 | COc1ccccc1C(=O)NCc1ccc(-c2nn(C3CCCC3)c(N)c2C(N)=O)cc1 [Example 1, 5-amino-1-cyclopentyl-3-[4-[[(2-methoxybenzoyl)amino]methyl]phenyl]pyrazole-4-carboxamide]
> 8.00 | > 8.00 | 7.00 to 8.00 | 5.00 to 6.00 | COc1ccccc1C(=O)NCc1ccc(-c2nn(C3COC(C)(C)C3)c(N)c2C(N)=O)cc1 (stereo not drawn) [Example 147, 5-amino-1-(5,5-dimethyltetrahydrofuran-3-yl)-3-[4-[[(2-methoxybenzoyl)amino]methyl]phenyl]pyrazole-4-carboxamide]
> 8.00 | > 8.00 | 7.00 to 8.00 | 6.00 to 7.00 | COc1ccccc1C(=O)NCc1ccc(-c2nn(-c3ccc(F)cc3)c(N)c2C(N)=O)cc1 [Example 43, 5-amino-1-(4-fluorophenyl)-3-[4-[[(2-methoxybenzoyl)amino]methyl]phenyl]pyrazole-4-carboxamide]
